These results are taken from patent publication US10759783B2, “Biaryl inhibitors of Bruton'S tyrosine kinase” (BIOGEN MA INC., priority 2013, dated 2020).

Each structure is given as a SMILES string.

For experiment [1], the target named is BTK (phospho-BTK) in human whole blood (Homo sapiens, UniProt Q06187). The experiment is described as follows: In vitro PD assay in human whole blood (pBTK assay).
The next experiment concerns the target T1, BTK enzyme (Homo sapiens, UniProt Q06187).
T1 construct: purchased Upstate 14-552
Briefly: In vitro BTK kinase assay: BTK-POLYGAT-LS assay. It is filed as biochemical. As to conditions: ATP 10 μM, read-out: IC50 (10uMATP). Put shortly:
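Human BTK activity was measured with final 10 μM ATP and 100 nM polyGAT substrate in pH 7.5 Tris buffer with 10 mM MgCl2, DTT, Triton X-100 and casein.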

T1 sequence (Q06187 whole entry): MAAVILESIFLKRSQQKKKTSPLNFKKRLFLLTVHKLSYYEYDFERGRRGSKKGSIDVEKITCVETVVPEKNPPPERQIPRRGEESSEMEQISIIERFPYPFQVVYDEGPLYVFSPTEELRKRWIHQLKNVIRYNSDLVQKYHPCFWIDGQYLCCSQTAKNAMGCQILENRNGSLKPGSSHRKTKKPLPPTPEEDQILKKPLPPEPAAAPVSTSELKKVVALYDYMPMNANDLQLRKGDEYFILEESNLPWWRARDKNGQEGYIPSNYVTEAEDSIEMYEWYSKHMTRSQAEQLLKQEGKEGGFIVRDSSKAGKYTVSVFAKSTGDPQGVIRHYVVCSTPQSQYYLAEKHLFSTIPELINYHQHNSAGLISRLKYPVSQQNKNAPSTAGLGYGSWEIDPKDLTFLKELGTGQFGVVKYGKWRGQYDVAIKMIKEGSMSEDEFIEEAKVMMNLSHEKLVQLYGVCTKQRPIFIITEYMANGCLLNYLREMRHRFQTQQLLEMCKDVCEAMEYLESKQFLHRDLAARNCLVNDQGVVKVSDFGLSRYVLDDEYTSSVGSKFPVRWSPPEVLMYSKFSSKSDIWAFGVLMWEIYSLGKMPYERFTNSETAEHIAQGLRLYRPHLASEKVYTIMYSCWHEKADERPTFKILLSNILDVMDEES
BTK (phospho-BTK) in human whole blood, sequence (Q06187 whole entry): as above

Regarding `Cc1cc(-c2ccnc(Nc3cnn(C(C)C)c3)n2)ccc1CNC(=O)c1cnn(C(C)(C)C)c1` [Example I-258, 1-tert-butyl-N-[[4-[2-[(1-isopropylpyrazol-4-yl)amino]pyrimidin-4-yl]-2-methyl-phenyl]methyl]pyrazole-4-carboxamide], the IC50 in experiment [1] is less than 500 nM; at BTK enzyme, less than 10 nM.
The like results for `Cc1cc(-c2cc(Nc3cc4n(n3)CCOC4)ncn2)ccc1CNC(=O)c1cnn(C(C)(C)C)c1` [Example I-237, 1-(tert-butyl)-N-(4-(6-((6,7-dihydro-4H-pyrazolo[5,1-c][1,4]oxazin-2-yl)amino)pyrimidin-4-yl)-2-methylbenzyl)-1H-pyrazole-4-carboxamide] were, in that order, less than 500 nM and less than 10 nM.
For `Cc1cc(-c2ccnc(Nc3cnn(CCO)c3)n2)ccc1CNC(=O)N1CC(OC(C)C)C1` [Example I-217, N-(4-(2-((1-(2-hydroxyethyl)-1H-pyrazol-4-yl)amino)pyrimidin-4-yl)-2-methylbenzyl)-3-isopropoxyazetidine-1-carboxamide], the results for the IC50 (in experiment [1]; at BTK enzyme) were less than 500 nM and less than 10 nM, respectively.
Regarding `Cn1cc(Nc2nccc(-c3ccc4c(c3)CCCC4NC(=O)c3cc4c(s3)CCOC4)n2)cn1` (stereo not drawn) [Example I-95, N-(6-(2-((1-methyl-1H-pyrazol-4-yl)amino)pyrimidin-4-yl)-1,2,3,4-tetrahydronaphthalen-1-yl)-6,7-dihydro-4H-thieno[3,2-c]pyran-2-carboxamide], the IC50 was 500 to 1500 nM in experiment [1] and less than 10 nM on BTK enzyme.
Take `Cc1cc(-c2cc(Nc3cc4n(n3)CCCN(CCO)C4)ncn2)ccc1CNC(=O)c1cnc(C(C)(C)C)s1` [Example I-285, 2-tert-butyl-N-[[4-[6-[[5-(2-hydroxyethyl)-4,6,7,8-tetrahydropyrazolo[1,5-a][1,4]diazepin-2-yl]amino]pyrimidin-4-yl]-2-methyl-phenyl]methyl]thiazole-5-carboxamide]: the values for the IC50 (in experiment [1]; at BTK enzyme) were less than 500 nM and less than 10 nM, respectively.
With `Cc1cc(-c2cc(Nc3cc4n(n3)CC(=O)N(C)C4)ncn2)ccc1CNC(=O)N1CC(OC(C)(C)C)C1` [Example I-239, 3-(tert-butoxy)-N-(2-methyl-4-(6-((5-methyl-6-oxo-4,5,6,7-tetrahydropyrazolo-[1,5-a]pyrazin-2-yl)amino)pyrimidin-4-yl)benzyl) azetidine-1-carboxamide], the IC50 in experiment [1] is less than 500 nM; on BTK enzyme it was less than 10 nM.
As to `Cc1cc(-c2ccnc(Nc3cnn(C[C@H](O)CN)c3)n2)ccc1CNC(=O)c1cnc(C(C)(C)C)s1` [Example I-127, (R)—N-(4-(2-((1-(3-amino-2-hydroxypropyl)-1H-pyrazol-4-yl)amino)pyrimidin-4-yl)-2-methylbenzyl)-2-(tert-butyl)thiazole-5-carboxamide], the values for the IC50 (in experiment [1]; on BTK enzyme) were 500 to 1500 nM and less than 10 nM, respectively.
On to `CCn1cc(Nc2nccc(-c3ccc4c(c3)CCCCC4NC(=O)N3CCC(C(C)C)C3)n2)cn1` (stereo not drawn) [Example I-341, N-[2-[2-[(1-ethylpyrazol-4-yl)amino]pyrimidin-4-yl]-6,7,8,9-tetrahydro-5H-benzo[7]annulen-5-yl]-3-isopropyl-pyrrolidine-1-carboxamide], for which the IC50 in experiment [1] is less than 500 nM; on BTK enzyme, less than 10 nM.
Regarding `Cc1cc(-c2cc(Nc3cc4n(n3)CCN(C)C4)ncn2)ccc1CN1CCc2c(cnn2C(C)(C)C)C1=O` [Example I-309, 1-tert-butyl-5-[[2-methyl-4-[6-[(5-methyl-6,7-dihydro-4H-pyrazolo[1,5-a]pyrazin-2-yl)amino]pyrimidin-4-yl]phenyl]methyl]-6,7-dihydropyrazolo[4,3-c]pyridin-4-one], the IC50 in experiment [1] is less than 500 nM; at BTK enzyme, less than 10 nM.
Taken in the same sequence, the figures for `Cn1cc(Nc2nccc(-c3ccc4c(c3)CCCC4NC(=O)c3cnc(C(C)(C)C)s3)n2)cn1` (stereo not drawn) [Example I-91, 2-(tert-butyl)-N-(6-(2-((1-methyl-1H-pyrazol-4-yl)amino)pyrimidin-4-yl)-1,2,3,4-tetrahydronaphthalen-1-yl)thiazole-5-carboxamide] were 1500 to 10000 nM and less than 10 nM.
Regarding `Cc1cc(-c2cc(Nc3cc4n(n3)CCCN(CCO)C4)ncn2)ccc1CNC(=O)c1cnn(C(C)(C)C)c1` [Example I-235, 1-(tert-butyl)-N-(4-(6-((5-(2-hydroxyethyl)-5,6,7,8-tetrahydro-4H-pyrazolo[1,5-a][1,4]diazepin-2-yl)amino)pyrimidin-4-yl)-2-methylbenzyl)-1H-pyrazole-4-carboxamide], the IC50 in experiment [1] is less than 500 nM; on BTK enzyme, less than 10 nM.
`Cc1cc(-c2ccnc(Nc3cn[nH]c3)n2)ccc1CNC(=O)N1CC(OC(C)C)C1` [Example I-222, N-(4-(2-((1H-pyrazol-4-yl)amino)pyrimidin-4-yl)-2-methylbenzyl)-3-isopropoxyazetidine-1-carboxamide]: the figures for the IC50 (in experiment [1]; on BTK enzyme) were 500 to 1500 nM and less than 10 nM, respectively.
On to `Cc1cc(-c2ccnc(Nc3cnn(C)c3)n2)ccc1CNC(=O)N1CC[C@@H](C(C)C)C1` [Example I-255, (3S)-3-isopropyl-N-[[2-methyl-4-[2-[(1-methylpyrazol-4-yl)amino]pyrimidin-4-yl]phenyl]methyl]pyrrolidine-1-carboxamide], for which the figures for the IC50 (in experiment [1]; on BTK enzyme) were less than 500 nM and less than 10 nM, respectively.
With `Cc1cc(-c2cc(Nc3cc4n(n3)CCN(C)C4)ncn2)ccc1CNC(=O)N1CCC(C(C)(C)C)C1` (stereo not drawn) [Example I-275, 3-tert-butyl-N-[[2-methyl-4-[6-[(5-methyl-6,7-dihydro-4H-pyrazolo[1,5-a]pyrazin-2-yl)amino]pyrimidin-4-yl]phenyl]methyl]pyrrolidine-1-carboxamide], the IC50 is less than 500 nM in experiment [1] and less than 10 nM at BTK enzyme.
For `Cc1cc(-c2ccnc(Nc3ccc(N4CCN(C)CC4)cn3)c2)ccc1CNC(=O)c1cnc(C(C)(C)C)s1` [Example I-70, 2-(tert-butyl)-N-(2-methyl-4-(2-((5-(4-methylpiperazin-1-yl)pyridin-2-yl)amino)pyridin-4-yl)benzyl)thiazole-5-carboxamide], the IC50 was less than 500 nM in experiment [1] and less than 10 nM on BTK enzyme.
Turning to `CN1CC(n2cc(Nc3nccc(-c4ccc(CNC(=O)N5CCC(C(C)(C)C)C5)c(C(F)(F)F)c4)n3)cn2)C1` (stereo not drawn) [Example I-311, 3-tert-butyl-N-[[4-[2-[[1-(1-methylazetidin-3-yl)pyrazol-4-yl]amino]pyrimidin-4-yl]-2-(trifluoromethyl)phenyl]methyl]pyrrolidine-1-carboxamide], the IC50 in experiment [1] was less than 500 nM; on BTK enzyme it was less than 10 nM.
`Cc1cc(-c2ccnc(Nc3cnn(C4CC(C(=O)O)C4)c3)n2)ccc1CNC(=O)c1cnc(C(C)(C)C)s1` (stereo not drawn) [Example I-44, 3-(4-((4-(4-((2-(tert-butyl)thiazole-5-carboxamido)methyl)-3-methylphenyl)pyrimidin-2-yl)amino)-1H-pyrazol-1-yl)cyclobutanecarboxylic acid]: the figures for the IC50 (in experiment [1]; at BTK enzyme) were less than 500 nM and less than 10 nM, respectively.
For the compound `Cc1cc(-c2cc(Nc3cc4n(n3)CCCNC4)ncn2)ccc1CNC(=O)c1cnn(C(C)(C)C)c1` [Example I-234, 1-(tert-butyl)-N-(2-methyl-4-(6-((5,6,7,8-tetrahydro-4H-pyrazolo[1,5-a][1,4]diazepin-2-yl)amino)pyrimidin-4-yl)benzyl)-1H-pyrazole-4-carboxamide], the IC50 in experiment [1] is less than 500 nM; on BTK enzyme it was less than 10 nM.
Turning to `Cc1cc(-c2cc(Nc3cc4n(n3)CCN(C)C4C)ncn2)ccc1CNC(=O)c1cnc(C(C)(C)C)s1` (stereo not drawn) [Example I-283, 2-tert-butyl-N-[[4-[6-[(4,5-dimethyl-6,7-dihydro-4H-pyrazolo[1,5-a]pyrazin-2-yl)amino]pyrimidin-4-yl]-2-methyl-phenyl]methyl]thiazole-5-carboxamide], the IC50 in experiment [1] was less than 500 nM; on BTK enzyme, less than 10 nM.
Taken in the same sequence, the figures for `CC(C)OC1CN(C(=O)NCc2ccc(-c3ccnc(Nc4cnn(C5CN(C)C5)c4)n3)cc2Cl)C1` [Example I-353, N-[[2-chloro-4-[2-[[1-(1-methylazetidin-3-yl)pyrazol-4-yl]amino]pyrimidin-4-yl]phenyl]methyl]-3-isopropoxy-azetidine-1-carboxamide] were less than 500 nM and less than 10 nM.
Regarding `COCCn1cc(Nc2nccc(-c3ccc(CNC(=O)N4CCC(C(C)(C)C)C4)c(C)c3)n2)cn1` (stereo not drawn) [Example I-303, 3-tert-butyl-N-[[4-[2-[[1-(2-methoxyethyl)pyrazol-4-yl]amino]pyrimidin-4-yl]-2-methyl-phenyl]methyl]pyrrolidine-1-carboxamide], the IC50 is less than 500 nM in experiment [1] and less than 10 nM on BTK enzyme.
In the case of `CN1CC(n2cc(Nc3nccc(-c4ccc(CNC(=O)c5cc(C(C)(C)C)on5)c(C(F)(F)F)c4)n3)cn2)C1` [Example I-355, 5-tert-butyl-N-[[4-[2-[[1-(1-methylazetidin-3-yl)pyrazol-4-yl]amino]pyrimidin-4-yl]-2-(trifluoromethyl)phenyl]methyl]isoxazole-3-carboxamide], the IC50 in experiment [1] is less than 500 nM; at BTK enzyme, less than 10 nM.
With `COCCn1cc(Nc2nccc(-c3ccc4c(c3)CCCC[C@H]4NC(=O)N3CC(OC(C)C)C3)n2)cn1` [Example I-227, (R)-3-isopropoxy-N-(2-(2-((1-(2-methoxyethyl)-1H-pyrazol-4-yl)amino)-pyrimidin-4-yl)-6,7,8,9-tetrahydro-5H-benzo[7]annulen-5-yl)azetidine-1-carboxamide], the IC50 in experiment [1] is less than 500 nM; at BTK enzyme, less than 10 nM.
`Cc1cc(-c2ccnc(Nc3cnn([C@@H]4CCNC4)c3)n2)ccc1CNC(=O)c1cnc(C(C)(C)C)s1` [Example I-122, (R)-2-(tert-butyl)-N-(2-methyl-4-(2-((1-(pyrrolidin-3-yl)-1H-pyrazol-4-yl)amino)pyrimidin-4-yl)benzyl)thiazole-5-carboxamide]: the IC50 in experiment [1] was less than 500 nM; on BTK enzyme, less than 10 nM.

By IC50 is commonly meant the concentration at which inhibition is half-maximal.
